Test results from US10752640B2, “Compounds active towards bromodomains” (NUEVOLUTION A/S, priority 2014, dated 2020).

target: BRD4 protein (Homo sapiens, UniProt O60885); test: FRET assay, half maximal inhibitory concentration (IC50); assay type: binding; conditions: BRD4 protein 50 nM, Biotin-H4KAc4 peptide 12.5 nM; A Further List of Classification
Method in brief: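 HTRF: 50 nM BRD4 preincubated 30 min at room temperature with compound (10-fold series from 50 μM in 12.5% DMSO) in 50 mM HEPES pH 7.5, 100 mM NaCl, 0.05% CHAPS. Then 12.5 nM biotin-H4KAc4 peptide for 30 min, and anti-GST XL665 (10 nM) plus streptavidin cryptate (2.4 nM) with 0.4 M KF for 1 h. IC50 by variable-slope fit.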

IC50 | SMILES
< 200 nM | Cc1cc(O)nc2ccc(NC(=O)c3cc(S(=O)(=O)N(C)C)ccc3N3CCC(C(N)=O)C3)cc12 (centres unmarked) [S44, 1-[4-(dimethylsulfamoyl)-2-[(2-hydroxy-4-methyl-6-quinolyl)carbamoyl]phenyl]pyrrolidine-3-carboxamide]
500 to 1000 nM | Cc1cc(O)nc2ccc(NC(=O)c3cc(S(=O)(=O)N(C)C)ccc3N3CCC(N(C)C)C3)cc12 (centres unmarked) [S45, 2-[3-(dimethylamino)pyrrolidin-1-yl]-5-(dimethylsulfamoyl)-N-(2-hydroxy-4-methyl-6-quinolyl)benzamide]
500 to 1000 nM | Cc1cc(O)nc2ccc(NC(=O)c3cc(S(=O)(=O)N(C)C)ccc3N3CCC(CC(C)C)C3)cc12 (centres unmarked) [S46, 5-(dimethylsulfamoyl)-N-(2-hydroxy-4-methyl-6-quinolyl)-2-(3-isobutylpyrrolidin-1-yl)benzamide]
< 200 nM | Cc1cc(O)nc2ccc(NC(=O)c3cc(S(=O)(=O)N(C)C)ccc3N3CCC(CN(C)C)C3)cc12 (centres unmarked) [S47, 2-[3-(dimethylaminomethyl)pyrrolidin-1-yl]-5-(dimethylsulfamoyl)-N-(2-hydroxy-4-methyl-6-quinolyl)benzamide]
< 200 nM | Cc1cc(O)nc2ccc(NC(=O)c3cc(S(=O)(=O)N(C)C)ccc3N3CCC(NC(N)=O)C3)cc12 (centres unmarked) [S48, 5-(dimethylsulfamoyl)-N-(2-hydroxy-4-methyl-6-quinolyl)-2-(3-ureidopyrrolidin-1-yl)benzamide]
500 to 1000 nM | Cc1cc(O)nc2ccc(NC(=O)c3cc(S(=O)(=O)N(C)C)ccc3N3CCC(N4CCCC4)C3)cc12 (centres unmarked) [S49, 5-(dimethylsulfamoyl)-N-(2-hydroxy-4-methyl-6-quinolyl)-2-(3-pyrrolidin-1-ylpyrrolidin-1-yl)benzamide]
500 to 1000 nM | Cc1cc(O)nc2ccc(NC(=O)c3cc(S(=O)(=O)N(C)C)ccc3N3CCC(OCC(N)=O)C3)cc12 (centres unmarked) [S50, 2-[3-(2-amino-2-oxo-ethoxy)pyrrolidin-1-yl]-5-(dimethylsulfamoyl)-N-(2-hydroxy-4-methyl-6-quinolyl)benzamide]
< 200 nM | Cc1cc(O)nc2ccc(NC(=O)c3cc(S(=O)(=O)N(C)C)ccc3N3CCC(c4ccccc4)C3)cc12 (centres unmarked) [S51, 5-(dimethylsulfamoyl)-N-(2-hydroxy-4-methyl-6-quinolyl)-2-(3-phenylpyrrolidin-1-yl)benzamide]
500 to 1000 nM | Cc1cc(O)nc2ccc(NC(=O)c3cc(S(=O)(=O)N(C)C)ccc3N3CCCC3C)cc12 (centres unmarked) [S52, 5-(dimethylsulfamoyl)-N-(2-hydroxy-4-methyl-6-quinolyl)-2-(2-methylpyrrolidin-1-yl)benzamide]
< 200 nM | COCC1CCCN1c1ccc(S(=O)(=O)N(C)C)cc1C(=O)Nc1ccc2nc(O)cc(C)c2c1 (centres unmarked) [S53, 5-(dimethylsulfamoyl)-N-(2-hydroxy-4-methyl-6-quinolyl)-2-[2-(methoxymethyl)pyrrolidin-1-yl]benzamide]
1000 to 10000 nM | Cc1cc(O)nc2ccc(NC(=O)c3cc(S(=O)(=O)N(C)C)ccc3N3CCC4CN(C)CC43)cc12 (centres unmarked) [S54, 5-(dimethylsulfamoyl)-N-(2-hydroxy-4-methyl-6-quinolyl)-2-(5-methyl-2,3,3a,4,6,6a-hexahydropyrrolo[3,4-b]pyrrol-1-yl)benzamide]
200 to 500 nM | Cc1cc(O)nc2ccc(NC(=O)c3cc(S(=O)(=O)N(C)C)ccc3N3CCCC3CC(C)C)cc12 (centres unmarked) [S55, 5-(dimethylsulfamoyl)-N-(2-hydroxy-4-methyl-6-quinolyl)-2-(2-isobutylpyrrolidin-1-yl)benzamide]
< 200 nM | Cc1cc(O)nc2ccc(NC(=O)c3cc(S(=O)(=O)N(C)C)ccc3N3CCCC3CN(C)C)cc12 (centres unmarked) [S56, 2-[2-(dimethylaminomethyl)pyrrolidin-1-yl]-5-(dimethylsulfamoyl)-N-(2-hydroxy-4-methyl-6-quinolyl)benzamide]
1000 to 10000 nM | Cc1cc(O)nc2ccc(NC(=O)c3cc(S(=O)(=O)N(C)C)ccc3N3CCCC3C(C)(C)O)cc12 (centres unmarked) [S57, 5-(dimethylsulfamoyl)-2-[2-(1-hydroxy-1-methyl-ethyl)pyrrolidin-1-yl]-N-(2-hydroxy-4-methyl-6-quinolyl)benzamide]
< 200 nM | Cc1cc(O)nc2ccc(NC(=O)c3cc(S(=O)(=O)N(C)C)ccc3N3CCCC3c3cc[nH]n3)cc12 (centres unmarked) [S59, 5-(dimethylsulfamoyl)-N-(2-hydroxy-4-methyl-6-quinolyl)-2-[2-(1H-pyrazol-3-yl)pyrrolidin-1-yl]benzamide]
< 200 nM | Cc1cc(O)nc2ccc(NC(=O)c3cc(S(=O)(=O)N(C)C)ccc3N3CCCC3c3nnn[nH]3)cc12 (centres unmarked) [S60, 5-(dimethylsulfamoyl)-N-(2-hydroxy-4-methyl-6-quinolyl)-2-[2-(1H-tetrazol-5-yl)pyrrolidin-1-yl]benzamide]
500 to 1000 nM | Cc1cc(O)nc2ccc(NC(=O)c3cc(S(=O)(=O)N(C)C)ccc3N3CCC4C3CCCN4C)cc12 (centres unmarked) [S61, 5-(dimethylsulfamoyl)-N-(2-hydroxy-4-methyl-6-quinolyl)-2-(4-methyl-3,3a,5,6,7,7a-hexahydro-2H-pyrrolo[3,2-b]pyridin-1-yl)benzamide]
< 200 nM | Cc1cc(O)nc2ccc(NC(=O)c3cc(S(=O)(=O)N(C)C)ccc3N3CCCC3C(=O)N(C)C)cc12 (centres unmarked) [S62, 1-[4-(dimethylsulfamoyl)-2-[(2-hydroxy-4-methyl-6-quinolyl)carbamoyl]phenyl]-N,N-dimethyl-pyrrolidine-2-carboxamide]

IC50 | SMILES
500 to 1000 nM | Cc1cc(O)nc2ccc(NC(=O)c3cc(S(=O)(=O)N(C)C)ccc3N3C4CCC3CC(C)(O)C4)cc12 (centres unmarked) [S65, 5-(dimethylsulfamoyl)-2-(3-hydroxy-3-methyl-8-azabicyclo[3.2.1]octan-8-yl)-N-(2-hydroxy-4-methyl-6-quinolyl)benzamide]
500 to 1000 nM | Cc1cc(O)nc2ccc(NC(=O)c3cc(S(=O)(=O)N(C)C)ccc3N3CC(C)C(O)CC3C)cc12 (centres unmarked) [S66, 5-(dimethylsulfamoyl)-2-(4-hydroxy-2,5-dimethyl-1-piperidyl)-N-(2-hydroxy-4-methyl-6-quinolyl)benzamide]
< 200 nM | Cc1cc(O)nc2ccc(NC(=O)c3cc(S(=O)(=O)N(C)C)ccc3N3CCCCC3c3ccccc3)cc12 (centres unmarked) [S67, 5-(dimethylsulfamoyl)-N-(2-hydroxy-4-methyl-6-quinolyl)-2-(2-phenyl-1-piperidyl)benzamide]
500 to 1000 nM | CCN(CC)S(=O)(=O)c1ccc(N2CCCC2)c(C(=O)Nc2ccc3nc(O)cc(C)c3c2)c1 [S71, 5-(diethylsulfamoyl)-N-(2-hydroxy-4-methyl-6-quinolyl)-2-pyrrolidin-1-yl-benzamide]
500 to 1000 nM | CCN(CC)S(=O)(=O)c1ccc(N2CCCCC2)c(C(=O)Nc2ccc3nc(O)cc(C)c3c2)c1 [S72, 5-(diethylsulfamoyl)-N-(2-hydroxy-4-methyl-6-quinolyl)-2-(1-piperidyl)benzamide]
500 to 1000 nM | Cc1cc(O)nc2ccc(NC(=O)c3cc([N+](=O)[O-])cnc3N3CCCCC3C)cc12 (centres unmarked) [S74, N-(2-hydroxy-4-methyl-6-quinolyl)-2-(2-methyl-1-piperidyl)-5-nitro-pyridine-3-carboxamide]
1000 to 10000 nM | O=C1CCc2cc(NC(=O)c3cc([N+](=O)[O-])ccc3N3CCCC3)ccc2N1 [S76, 5-nitro-N-(2-oxo-3,4-dihydro-1H-quinolin-6-yl)-2-pyrrolidin-1-yl-benzamide]
1000 to 10000 nM | CN1C(=O)COc2cc(NC(=O)c3cc([N+](=O)[O-])ccc3N3CCCC3)ccc21 [S77, N-(4-methyl-3-oxo-1,4-benzoxazin-7-yl)-5-nitro-2-pyrrolidin-1-yl-benzamide]
1000 to 10000 nM | O=C1CCc2cc(NC(=O)c3cc(S(=O)(=O)N4CCOCC4)ccc3N3CCCC3)ccc2N1 [S78, 5-morpholinosulfonyl-N-(2-oxo-3,4-dihydro-1H-quinolin-6-yl)-2-pyrrolidin-1-yl-benzamide]
1000 to 10000 nM | CN1C(=O)COc2cc(NC(=O)c3cc(S(=O)(=O)N4CCOCC4)ccc3N3CCCC3)ccc21 [S79, N-(4-methyl-3-oxo-1,4-benzoxazin-7-yl)-5-morpholinosulfonyl-2-pyrrolidin-1-yl-benzamide]
1000 to 10000 nM | CN1CCN(Cc2ccc(N3CCCC3)c(C(=O)Nc3ccc4c(c3)CCC(=O)N4)c2)CC1 [S80, 5-[(4-methylpiperazin-1-yl)methyl]-N-(2-oxo-3,4-dihydro-1H-quinolin-6-yl)-2-pyrrolidin-1-yl-benzamide]
< 200 nM | Cc1cc(O)nc2ccc(NC(=O)c3cc(CN(C)CCO)ccc3N3CCCC3)cc12 [S81, 5-[[2-hydroxyethyl(methyl)amino]methyl]-N-(2-hydroxy-4-methyl-6-quinolyl)-2-pyrrolidin-1-yl-benzamide]
< 200 nM | Cc1cc(O)nc2ccc(NC(=O)c3cc(CNCC4CCCO4)ccc3N3CCCC3)cc12 (centres unmarked) [S82, N-(2-hydroxy-4-methyl-6-quinolyl)-2-pyrrolidin-1-yl-5-[(tetrahydrofuran-2-ylmethylamino)methyl]benzamide]
< 200 nM | Cc1cc(O)nc2ccc(NC(=O)c3cc(CN4CCC(N(C)C)C4)ccc3N3CCCC3)cc12 (centres unmarked) [S83, 5-[[3-(dimethylamino)pyrrolidin-1-yl]methyl]-N-(2-hydroxy-4-methyl-6-quinolyl)-2-pyrrolidin-1-yl-benzamide]
< 200 nM | Cc1cc(O)nc2ccc(NC(=O)c3cc(CN4CCC(O)C4)ccc3N3CCCC3)cc12 (centres unmarked) [S84, N-(2-hydroxy-4-methyl-6-quinolyl)-5-[(3-hydroxypyrrolidin-1-yl)methyl]-2-pyrrolidin-1-yl-benzamide]
< 200 nM | COC[C@@H]1CCCN1Cc1ccc(N2CCCC2)c(C(=O)Nc2ccc3nc(O)cc(C)c3c2)c1 [S85, N-(2-hydroxy-4-methyl-6-quinolyl)-5-[[(2S)-2-(methoxymethyl)pyrrolidin-1-yl]methyl]-2-pyrrolidin-1-yl-benzamide]
< 200 nM | Cc1cc(O)nc2ccc(NC(=O)c3cc(CN4CCN(CCO)CC4)ccc3N3CCCC3)cc12 [S86, 5-[[4-(2-hydroxyethyl)piperazin-1-yl]methyl]-N-(2-hydroxy-4-methyl-6-quinolyl)-2-pyrrolidin-1-yl-benzamide]
